Laboratory results: ChEMBL document CHEMBL5725362, “Long chain base sphingosine kinase inhibitors” (2017)
pKi: −log10 of the molar value.

Biological target: Sphingosine kinase 1 (Homo sapiens, UniProt Q9NYA1)
Test: Scintillation Proximity Assay: SphK activity was measured by a scintillation proximity assay as previously described [1], the disclosure of which is incorporated herein. Briefly, recombinant SphK1 or SphK2 were expressed in Sf9 insect cells, crude homogenates were prepared and incubated in 96 well FlashPlates (Perkin-Elmer) in a buffer containing D-erythro-sphingosine and γ-[33P]ATP. The [33P]S1P …

Sphingosine kinase 1, sequence (Q9NYA1 whole entry): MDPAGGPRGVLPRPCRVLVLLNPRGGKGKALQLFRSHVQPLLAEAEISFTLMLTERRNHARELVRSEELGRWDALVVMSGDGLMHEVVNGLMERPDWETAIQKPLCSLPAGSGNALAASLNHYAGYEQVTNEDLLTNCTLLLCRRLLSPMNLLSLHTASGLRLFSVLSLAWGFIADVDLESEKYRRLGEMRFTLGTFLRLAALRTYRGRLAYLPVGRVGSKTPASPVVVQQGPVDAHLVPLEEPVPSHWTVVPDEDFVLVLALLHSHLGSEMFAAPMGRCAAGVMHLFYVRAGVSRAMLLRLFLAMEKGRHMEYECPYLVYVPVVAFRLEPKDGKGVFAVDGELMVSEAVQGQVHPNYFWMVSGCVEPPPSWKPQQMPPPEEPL

SMILES: CCCCCCCCCCCc1cc(-c2noc(C3(C(=N)N)CC3)n2)ccc1C
- pKi: > 6.00

SMILES: N=C(N)C1(c2nc(-c3cccc(CCc4cccc(CCC5CCCCC5)c4)c3)no2)CC1
- pKi: > 6.00

SMILES: CCCCCCCCCCc1ccc(/C=C/C2(C(=N)N)CC2)cc1
- pKi: < 5.00

SMILES: N=C(N)C1(c2nnc(-c3ccc(CCCCCCCOCC4CCCCC4)cc3)o2)CC1
- pKi: > 6.00

SMILES: CCCCCCCCCCCc1cc(-c2nnc(C3(C(=N)N)CC3)o2)ccc1F
- pKi: > 6.00

SMILES: N=C(N)N1CCC[C@H]1c1nc(-c2ccc(CS(=O)(=O)c3ccccc3)cc2)no1
- pKi: < 5.00

SMILES: N=C(N)C1(c2nc(-c3cccc(CCCCCCOCC4CCCCC4)c3)no2)CC1
- pKi: > 6.00

SMILES: CCCCCCCCCCCCc1cccc(-c2noc(C3(C(=N)N)CC3)n2)c1
- pKi: > 6.00

SMILES: CCCCCCCCCCCc1cccc(-c2nnc(C3(C(=N)N)CC3)o2)c1
- pKi: > 6.00

SMILES: N=C(N)C1(c2nnc(-c3cccc(CCCCCCOCC4CCCCC4)c3)o2)CC1
- pKi: > 6.00

SMILES: CCCCCCCCCCCc1ccc(F)c(-c2nnc(C3(C(=N)N)CC3)o2)c1
- pKi: > 6.00

SMILES: CCCCCCCCCCCc1cc(-c2nnc(C3(C(=N)N)CC3)o2)ccc1C
- pKi: > 6.00

SMILES: CCCCCCCCCCCc1cccc(-c2nc(C3(C(=N)N)CC3)n[nH]2)c1
- pKi: > 6.00

SMILES: CCCCCCCCCCCc1ccc(C)c(-c2nnc(C3(C(=N)N)CC3)o2)c1
- pKi: > 6.00
